Data published in patent US7629377B2, “Substituted naphthyl indole derivatives as inhibitors of plasminogen activator inhibitor type-1 (PAI-1)” (Wyeth, priority 2008, dated 2009).

What was measured:
[1] = molecular target: human PAI-1 (Homo sapiens, UniProt P05121); assay: Assay for Determining IC50 of Inhibition of PAI-1 (Antibody Assay); format: biochemical; details: for IC50: Antibody Assay (footnote a), active PAI-1 bound to tPA-coated plate, pH 7.5; for inhibition at 25 µM: 25 μM test compound, footnote a (Antibody Assay)
Protocol: Assay for Determining IC50 of Inhibition of PAI-1
This assay is based upon the non-SDS dissociable interaction between tPA and active PAI-1. Assay plates are initially coated with human tPA (10 μg/ml). Test compounds are dissolved in DMSO at 10 mM, then diluted with physiologic buffer (pH 7.5) to a final concentration of 1-50 μM. Test compounds are incubated with human PAI-1 (50 ng/ml) for 15 minutes at room temperature. The tPA-coated plate is washed with a solution of 0.05% Tween 20 and 0.1% BSA, then the plate is blocked with a solution of 3% BSA. An aliquot of the test compound/PAI-1 solution is then added to the tPA-coated plate, incubated at room temperature for 1 hour, and washed. Active PAI-1 bound to the plate is assessed by adding an aliquot of a 1:1000 dilution of the 33B8 monoclonal antibody against human PAI-1, and incubating the plate at room temperature for 1 hour (Molecular Innovations, Royal Oak, Mich. The plate is again washed, and a solution of goat anti-mouse IgG-alkaline phosphatase conjugate is added at a 1:50,000 dilution in goat serum. The plate is incubated 30 minutes at room temperature, washed, and a solution of alkaline phosphatase substrate is added. The plate is incubated 45 minutes at room temperature, and color development is determined at OD405 nm. The quantitation of active PAI-1 bound to tPA at varying concentrations of test compound is used to determine the IC50. Results are analyzed using a logarithmic best-fit equation. The assay sensitivity is 5 ng/ml of human PAI-1 as determined from a standard curve ranging from 0-100 ng/ml.

[2] = molecular target: T1, recombinant human plasminogen activator inhibitor-1 (PAI-1) (Homo sapiens, UniProt P05121); assay: modification of the Primary Screen for PAI-1 Inhibition; format: biochemical; details: modification of the Primary Screen (footnote b); residual tPA activity, Spectrozyme-tPA
T1 construct: purchased Molecular Innovations, Royal Oak, Mich
Protocol: Primary Screen for the PAI-1 Inhibition
Test compounds are dissolved in DMSO at a final concentration of 10 mM, then diluted […] in physiologic buffer. The inhibitory assay is initiated by the addition of test compound (1-100 μM final concentration, maximum DMSO concentration of 0.2%) in a pH 6.6 buffer containing 140 nM recombinant human plasminogen activator inhibitor-1 (PAI-1; Molecular Innovations, Royal Oak, Mich. Following a 1 hour incubation at room temperature, 70 nM of recombinant human tissue plasminogen activator (tPA) is added, and the combination of test compound, PAI-1 and tPA is incubated for an additional 30 minutes. Following the second incubation, Spectrozyme-tPA (American Diagnostica, Greenwich, Conn.), a chromogenic substrate for tPA, is added and absorbance read at 405 nm at 0 and 60 minutes. Relative PAI-1 inhibition is equal to the residual tPA activity in the presence of test compound and PAI-1. Control treatments include the complete inhibition of tPA by PAI-1 at the molar ratio employed (2:1), and the absence of any effect of the test compound on tPA alone.

human PAI-1, sequence (P05121 24-402): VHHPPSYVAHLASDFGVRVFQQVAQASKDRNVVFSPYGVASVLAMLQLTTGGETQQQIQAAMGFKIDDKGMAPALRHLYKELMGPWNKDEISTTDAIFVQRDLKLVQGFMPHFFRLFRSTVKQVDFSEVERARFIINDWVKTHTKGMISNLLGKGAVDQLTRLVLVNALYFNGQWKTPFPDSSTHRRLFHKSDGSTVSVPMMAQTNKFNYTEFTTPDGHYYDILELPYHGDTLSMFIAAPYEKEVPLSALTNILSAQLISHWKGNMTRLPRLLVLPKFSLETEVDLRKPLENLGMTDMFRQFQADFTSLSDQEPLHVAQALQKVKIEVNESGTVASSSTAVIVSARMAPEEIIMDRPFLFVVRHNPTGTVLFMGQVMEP
T1 sequence (P05121 24-402): as above

| Structure (SMILES) | IC50 [1] [µM] | IC50 [2] [µM] | melting point | inhibition at 25 µM [1] [%] |
| --- | --- | --- | --- | --- |
| CCCCCc1c(-c2ccc3cc(OCc4nnn[nH]4)ccc3c2)n(Cc2ccccc2)c2ccccc12 [Example 1, 1-Benzyl-3-pentyl-2-[6-(1H-tetraazol-5-ylmethoxy)-2-naphthyl]-1H-indole] | 9.85 |  |  |  |
| CCCCCc1c(-c2ccc3c(Br)c(OCc4nnn[nH]4)ccc3c2)n(Cc2ccccc2)c2ccccc12 [Example 2, 1-Benzyl-2-[5-bromo-6-(1H-tetraazol-5-ylmethoxy)-2-naphthyl]-3-pentyl-1H-indole] |  | 8.8 | > 70 °C (dec.) |  |
| CCCCCc1c(-c2ccc3cc(OCc4nnn[nH]4)ccc3c2)n(C)c2ccccc12 [Example 3, 1-Methyl-3-pentyl-2-[6-(1H-tetraazol-5-ylmethoxy)-2-naphthyl]-1H-indole] | 16.2 |  | 120 to 122 °C |  |
| CCCCCc1c(-c2ccc3c(Br)c(OCc4nnn[nH]4)ccc3c2)n(C)c2ccccc12 [Example 4, 2-[5-Bromo-6-(1H-tetraazol-5-ylmethoxy)-2-naphthyl]-1-methyl-3-pentyl-1H-indole] |  | 17.4 | > 125 °C (dec.) |  |
| CCCCCc1c(-c2ccc3cc(OCc4nnn[nH]4)ccc3c2)n(C(C)=O)c2ccccc12 [Example 5, 1-Acetyl-3-pentyl-2-[6-(1H-tetraazol-5-ylmethoxy)-2-naphthyl]-1H-indole] |  | 9.2 | > 95 °C (dec.) |  |
| CCCCCc1c(-c2ccc3c(Br)c(OCc4nnn[nH]4)ccc3c2)n(C(C)=O)c2ccccc12 [Example 6, 1-Acetyl-2-[5-bromo-6-(1H-tetraazol-5-ylmethoxy)-2-naphthyl]-3-pentyl-1H-indole] |  |  | > 79 °C (dec.) | 16 |
| CCCCCc1c(-c2ccc3cc(OCc4nnn[nH]4)ccc3c2)n(Cc2ccccc2C(F)(F)F)c2ccccc12 [Example 7, 3-Pentyl-2-[6-(1H-tetraazol-5-ylmethoxy)-2-naphthyl]-1-[2-(trifluoromethyl)benzyl]-1H-indole] | 5.22 |  | > 100 °C (dec.) |  |
| CCCCCc1c(-c2ccc3c(Br)c(OCc4nnn[nH]4)ccc3c2)n(Cc2ccccc2C(F)(F)F)c2ccccc12 [Example 8, 2-[5-Bromo-6-(1H-tetraazol-5-ylmethoxy)-2-naphthyl]-3-pentyl-1-[2-(trifluoromethyl)benzyl]-1H-indole] |  |  | > 85 °C (dec.) | 57 |
| CCCCCc1c(-c2ccc3cc(OCc4nnn[nH]4)ccc3c2)n(Cc2ccc(C(C)(C)C)cc2)c2ccccc12 [Example 9, 1-(4-tert-Butylbenzyl)-3-pentyl-2-[6-(1H-tetraazol-5-ylmethoxy)-2-naphthyl]-1H-indole] | 24.9 |  | > 95 °C (dec.) |  |
| CCCCCc1c(-c2ccc3c(Br)c(OCc4nnn[nH]4)ccc3c2)n(Cc2ccc(C(C)(C)C)cc2)c2ccccc12 [Example 10, 2-[5-Bromo-6-(1H-tetraazol-5-ylmethoxy)-2-naphthyl]-1-(4-tert-butylbenzyl)-3-pentyl-1H-indole] |  |  | > 90 °C (dec.) | 60 |
| CCCCCc1c(-c2ccc3c(Br)c(OCC(=O)O)ccc3c2)n(C)c2ccccc12 [Example 11, {[1-Bromo-6-(1-methyl-3-pentyl-1H-indol-2-yl)-2-naphthyl]oxy}acetic acid] | 10.7 |  | > 73 °C (dec.) |  |
